Experimental data published in article PMC5218480 (PLoS ONE, 2017).

Test system: MV-4-11 cells
Assay: Gene expression microarray analysis (Affymetrix PrimeView) and GSEA
Assay type: cell-based, human
Design: RFU PODN (11730768_x_at) / Fold change /veh PODN (11730768_x_at) / RFU LINC00158 (11744669_a_at) / Fold change /veh LINC00158 (11744669_a_at) / RFU DUSP10 (11751237_a_at) / Fold change /veh DUSP10 (11751237_a_at) / RFU ID3 (11757404_x_at) / Fold change /veh ID3 (11757404_x_at) / RFU PLEKHG5 (11737974_s_at) / Fold change /veh PLEKHG5 (11737974_s_at) / RFU LRRC4B (11730491_at) / Fold change /veh LRRC4B (11730491_at) / RFU GIMAP4 (11747438_a_at) / Fold change /veh GIMAP4 (11747438_a_at) / RFU KRT8 (11758183_x_at) / Fold change /veh KRT8 (11758183_x_at) / RFU CNN1 (11734310_a_at) / Fold change /veh CNN1 (11734310_a_at) / RFU VPS37D (11726825_at) / Fold change /veh VPS37D (11726825_at) / RFU C10orf10 (11716522_x_at) / Fold change /veh C10orf10 (11716522_x_at) / RFU KIR2DL2 /// KIR2DL4 /// KIR2DL5A /// KIR2DL5B /// KIR2DS1 /// KIR2DS2 /// KIR2DS3 /// KIR2DS4 /// KIR3DL3 /// KIR3DL3 /// KIR3DS1 (11738374_at) / Fold change /veh KIR2DL2 /// KIR2DL4 /// KIR2DL5A /// KIR2DL5B /// KIR2DS1 /// KIR2DS2 /// KIR2DS3 /// KIR2DS4 /// KIR3DL3 /// KIR3DL3 /// KIR3DS1 (11738374_at) / RFU C1QL1 (11718748_at) / Fold change /veh C1QL1 (11718748_at) / RFU TMPRSS4 (11747572_a_at) / Fold change /veh TMPRSS4 (11747572_a_at) / RFU HAMP (11756126_x_at) / Fold change /veh HAMP (11756126_x_at) / RFU RNFT2 (11725882_a_at) / Fold change /veh RNFT2 (11725882_a_at) / RFU NR4A2 (11747474_a_at) / Fold change /veh NR4A2 (11747474_a_at) / RFU ABCC12 (11746883_a_at) / Fold change /veh ABCC12 (11746883_a_at) / RFU TMEM136 (11760407_x_at) / Fold change /veh TMEM136 (11760407_x_at) / RFU CLDN22 /// WWC2 (11732394_at) / Fold change /veh CLDN22 /// WWC2 (11732394_at) / RFU HLA-DPB1 (11760878_x_at) / Fold change /veh HLA-DPB1 (11760878_x_at) / RFU SPINT1 (11716480_a_at) / Fold change /veh SPINT1 (11716480_a_at) / RFU GAP43 (11754022_s_at) / Fold change /veh GAP43 (11754022_s_at) / RFU A4GNT (11735810_at) / Fold change /veh A4GNT (11735810_at) / RFU PRB3 (11715151_x_at) / Fold change /veh PRB3 (11715151_x_at) / RFU TUBB4B (11761932_at) / Fold change /veh TUBB4B (11761932_at) / RFU CAPN14 (11732068_a_at) / Fold change /veh CAPN14 (11732068_a_at) / RFU TMCC2 (11721928_a_at) / Fold change /veh TMCC2 (11721928_a_at) / RFU IRGQ (11745062_a_at) / Fold change /veh IRGQ (11745062_a_at) / RFU FAM174B (11720279_a_at) / Fold change /veh FAM174B (11720279_a_at) / RFU TMPRSS4 (11748680_a_at) / Fold change /veh TMPRSS4 (11748680_a_at) / RFU FAM212B (11763350_a_at) / Fold change /veh FAM212B (11763350_a_at) / RFU PLEKHG5 (11743358_a_at) / Fold change /veh PLEKHG5 (11743358_a_at) / RFU ZSCAN30 (11745921_a_at) / Fold change /veh ZSCAN30 (11745921_a_at) / RFU CMKLR1 (11741424_a_at) / Fold change /veh CMKLR1 (11741424_a_at) / RFU LOC101060620 /// MAPK8IP1 (11723275_at) / Fold change /veh LOC101060620 /// MAPK8IP1 (11723275_at) / RFU SPTSSB (11747773_x_at) / Fold change /veh SPTSSB (11747773_x_at) / RFU PRSS12 (11739890_at) / Fold change /veh PRSS12 (11739890_at) / RFU BIN1 (11741810_x_at) / Fold change /veh BIN1 (11741810_x_at) / RFU WNT11 (11732464_a_at) / Fold change /veh WNT11 (11732464_a_at) / RFU C10orf10 (11716521_a_at) / Fold change /veh C10orf10 (11716521_a_at) / RFU C5orf56 (11738089_at) / Fold change /veh C5orf56 (11738089_at) / RFU CYB561 (11721691_x_at) / Fold change /veh CYB561 (11721691_x_at) / RFU ANKRD19P (11752326_a_at) / Fold change /veh ANKRD19P (11752326_a_at) / RFU OR2T12 /// OR2T33 /// OR2T8 (11738714_s_at) / Fold change /veh OR2T12 /// OR2T33 /// OR2T8 (11738714_s_at) / RFU VCAN (11748164_a_at) / Fold change /veh VCAN (11748164_a_at) / RFU JSRP1 (11732532_at) / Fold change /veh JSRP1 (11732532_at) / RFU KRTAP10-11 (11738290_x_at) / Fold change /veh KRTAP10-11 (11738290_x_at) / RFU MYO3A (11730013_a_at) / Fold change /veh MYO3A (11730013_a_at) / RFU EBF3 (11725865_a_at) / Fold change /veh EBF3 (11725865_a_at) / RFU CAMK2N1 (11719241_x_at) / Fold change /veh CAMK2N1 (11719241_x_at) / RFU C5orf56 (11738088_a_at) / Fold change /veh C5orf56 (11738088_a_at) / RFU OLFML3 (11715873_a_at) / Fold change /veh OLFML3 (11715873_a_at) / RFU LOC100653217 /// NTM (11731650_a_at) / Fold change /veh LOC100653217 /// NTM (11731650_a_at) / RFU MAPK11 (11762145_a_at) / Fold change /veh MAPK11 (11762145_a_at) / RFU FIZ1 (11724087_x_at) / Fold change /veh FIZ1 (11724087_x_at) / RFU OASL (11726364_x_at) / Fold change /veh OASL (11726364_x_at) / RFU SOX15 (11748057_x_at) / Fold change /veh SOX15 (11748057_x_at) / RFU CD79A (11719716_a_at) / Fold change /veh CD79A (11719716_a_at) / RFU HIST1H1D (11736915_at) / Fold change /veh HIST1H1D (11736915_at) / RFU CASKIN2 (11723855_a_at) / Fold change /veh CASKIN2 (11723855_a_at) / RFU LOC730098 (11760151_x_at) / Fold change /veh LOC730098 (11760151_x_at) / RFU OR4N2 (11742367_at) / Fold change /veh OR4N2 (11742367_at) / RFU PRRT2 (11749266_a_at) / Fold change /veh PRRT2 (11749266_a_at) / RFU SNX32 (11753110_a_at) / Fold change /veh SNX32 (11753110_a_at) / RFU CDHR5 (11726645_a_at) / Fold change /veh CDHR5 (11726645_a_at) / RFU RCAN1 (11760418_a_at) / Fold change /veh RCAN1 (11760418_a_at) / RFU FAM167A (11723789_a_at) / Fold change /veh FAM167A (11723789_a_at) / RFU FAM26E (11764081_at) / Fold change /veh FAM26E (11764081_at) / RFU ISYNA1 (11749810_s_at) / Fold change /veh ISYNA1 (11749810_s_at) / RFU ACY1 (11761880_at) / Fold change /veh ACY1 (11761880_at) / RFU 11764098_at / Fold change /veh 11764098_at / RFU SAMD14 (11745864_x_at) / Fold change /veh SAMD14 (11745864_x_at) / RFU NPB (11741838_a_at) / Fold change /veh NPB (11741838_a_at) / RFU TMPRSS6 (11731388_a_at) / Fold change /veh TMPRSS6 (11731388_a_at) / RFU KRTAP10-2 (11738614_at) / Fold change /veh KRTAP10-2 (11738614_at) / RFU ARHGAP8 /// PRR5-ARHGAP8 (11727945_x_at) / Fold change /veh ARHGAP8 /// PRR5-ARHGAP8 (11727945_x_at) / RFU KRTAP5-7 /// NADSYN1 (11734609_at) / Fold change /veh KRTAP5-7 /// NADSYN1 (11734609_at) / RFU RASL12 (11751679_a_at) / Fold change /veh RASL12 (11751679_a_at) / RFU CDKN2B (11736163_a_at) / Fold change /veh CDKN2B (11736163_a_at) / RFU PRF1 (11729649_at) / Fold change /veh PRF1 (11729649_at) / RFU, ZNF638 /// ZNF638-IT1 / Fold change vs veh, ZNF638 /// ZNF638-IT1 / RFU, PANK3 / Fold change vs veh, PANK3 / RFU, SH3YL1 / Fold change vs veh, SH3YL1 / RFU, ZEB2 / Fold change vs veh, ZEB2 / RFU, NRIP1 / Fold change vs veh, NRIP1 / RFU, PTTG1IP / Fold change vs veh, PTTG1IP / RFU, CAPN2 / Fold change vs veh, CAPN2 / RFU, MED14 / Fold change vs veh, MED14 / RFU, SNORA58 / Fold change vs veh, SNORA58 / RFU, C1orf63 / Fold change vs veh, C1orf63 / RFU, LRRFIP1 / Fold change vs veh, LRRFIP1 / RFU, NDUFAF7 / Fold change vs veh, NDUFAF7 / RFU, SLC12A2 / Fold change vs veh, SLC12A2 / RFU, IBTK / Fold change vs veh, IBTK / RFU, ESF1 / Fold change vs veh, ESF1 / Fold change vs veh, TMEM50B / RFU, TAOK1 / Fold change vs veh, TAOK1 / RFU, ACBD3 / Fold change vs veh, ACBD3 / RFU, TMA16 / Fold change vs veh, TMA16 / RFU, RWDD3 / Fold change vs veh, RWDD3 / RFU, BCAT1 / Fold change vs veh, BCAT1 / RFU, EDEM3 / Fold change vs veh, EDEM3 / RFU, TMEM33 / Fold change vs veh, TMEM33 / RFU, WDR75 / Fold change vs veh, WDR75 / RFU, AHCTF1 / Fold change vs veh, AHCTF1 / RFU, TFRC / Fold change vs veh, TFRC / RFU, ZDHHC17 / Fold change vs veh, ZDHHC17 / RFU, NOM1 / Fold change vs veh, NOM1 / RFU, ARL8B / Fold change vs veh, ARL8B / RFU, ZBTB11 / Fold change vs veh, ZBTB11 / RFU, TAMM41 / Fold change vs veh, TAMM41 / RFU, KIAA1704 /// LOC100996395 / Fold change vs veh, KIAA1704 /// LOC100996395 / RFU, ING1 / Fold change vs veh, ING1 / RFU, TRMT61B / Fold change vs veh, TRMT61B / RFU, FUBP3 / Fold change vs veh, FUBP3 / RFU, TP53 / Fold change vs veh, TP53 / RFU, TNKS2 / Fold change vs veh, TNKS2 / RFU, ZFP14 / Fold change vs veh, ZFP14 / RFU, ACTR2 / Fold change vs veh, ACTR2 / RFU, PPP3R1 / Fold change vs veh, PPP3R1 / RFU, PIK3R1 / Fold change vs veh, PIK3R1 / RFU, HNRNPA1 / Fold change vs veh, HNRNPA1 / RFU, RNF170 / Fold change vs veh, RNF170 / RFU, ZNF28 / Fold change vs veh, ZNF28 / RFU, RNGTT / Fold change vs veh, RNGTT / RFU, OGT / Fold change vs veh, OGT / RFU, BRD1 / Fold change vs veh, BRD1 / RFU, MARS / Fold change vs veh, MARS / RFU, ZNF655 / Fold change vs veh, ZNF655 / RFU, FAHD1 / Fold change vs veh, FAHD1 / RFU, BDP1 / Fold change vs veh, BDP1 / RFU, LRRCC1 / Fold change vs veh, LRRCC1 / RFU, ARID1A / Fold change vs veh, ARID1A / RFU, ZNF146 / Fold change vs veh, ZNF146 / RFU, ZNF330 / Fold change vs veh, ZNF330 / RFU, GPN3 / Fold change vs veh, GPN3 / RFU, C9orf123 / Fold change vs veh, C9orf123 / RFU, N4BP2L2 / Fold change vs veh, N4BP2L2 / RFU, ARFIP1 / Fold change vs veh, ARFIP1 / RFU, FAM179B / Fold change vs veh, FAM179B / RFU, BCL10 / Fold change vs veh, BCL10 / RFU, UHRF1BP1L / Fold change vs veh, UHRF1BP1L / RFU, BET1 / Fold change vs veh, BET1 / RFU, CNOT2 / Fold change vs veh, CNOT2 / RFU, ZNF268 / Fold change vs veh, ZNF268 / Fold change vs veh, ZNF507 / RFU, DGCR2 / Fold change vs veh, DGCR2 / RFU, WDSUB1 / Fold change vs veh, WDSUB1 / Fold change vs veh, HSP90B1 /// MIR3652 / RFU, ADSS / Fold change vs veh, ADSS / RFU, GK / Fold change vs veh, GK / RFU, ZNF148 / Fold change vs veh, ZNF148 / RFU, TAF9 / Fold change vs veh, TAF9 / RFU, SLC1A5 / Fold change vs veh, SLC1A5 / RFU, SLMO2 / Fold change vs veh, SLMO2 / RFU, ABCC4 / Fold change vs veh, ABCC4 / RFU, LOC101060439 /// RAP1B / Fold change vs veh, LOC101060439 /// RAP1B / RFU, RFX7 / Fold change vs veh, RFX7 / RFU, GTPBP10 / Fold change vs veh, GTPBP10 / RFU, CNEP1R1 / Fold change vs veh, CNEP1R1 / RFU, BIVM-ERCC5 /// ERCC5 / Fold change vs veh, BIVM-ERCC5 /// ERCC5 / RFU, ILF3 / Fold change vs veh, ILF3 / RFU 11762660_at / Fold change /veh 11762660_at / RFU VCAN (11757783_s_at) / Fold change /veh VCAN (11757783_s_at) / RFU DDX43 (11728927_at) / Fold change /veh DDX43 (11728927_at) / RFU KRT8 (11758188_x_at) / Fold change /veh KRT8 (11758188_x_at) / RFU NKD1 (11759106_at) / Fold change /veh NKD1 (11759106_at) / RFU SRD5A1 (11742802_a_at) / Fold change /veh SRD5A1 (11742802_a_at) / RFU TPSAB1 /// TPSB2 (11721975_s_at) / Fold change /veh TPSAB1 /// TPSB2 (11721975_s_at) / RFU GSTM3 (11746129_a_at) / Fold change /veh GSTM3 (11746129_a_at) / RFU IL23R (11737362_x_at) / Fold change /veh IL23R (11737362_x_at) / RFU TMEM51 (11727254_a_at) / Fold change /veh TMEM51 (11727254_a_at) / RFU PIWIL2 (11732686_x_at) / Fold change /veh PIWIL2 (11732686_x_at) / RFU ORM1 (11744905_x_at) / Fold change /veh ORM1 (11744905_x_at) / RFU CCDC152 (11743942_at) / Fold change /veh CCDC152 (11743942_at) / RFU ECM1 (11717891_a_at) / Fold change /veh ECM1 (11717891_a_at) / RFU IL23R (11748794_a_at) / Fold change /veh IL23R (11748794_a_at) / RFU TNFAIP8L3 (11732012_x_at) / Fold change /veh TNFAIP8L3 (11732012_x_at) / RFU MBOAT4 (11741988_at) / Fold change /veh MBOAT4 (11741988_at) / RFU 11764193_at / Fold change /veh 11764193_at / RFU TMEM53 (11763286_at) / Fold change /veh TMEM53 (11763286_at) / RFU MAGEB2 (11727129_at) / Fold change /veh MAGEB2 (11727129_at) / RFU TMEM200A (11744735_a_at) / Fold change /veh TMEM200A (11744735_a_at) / RFU CCDC152 (11751479_a_at) / Fold change /veh CCDC152 (11751479_a_at) / RFU FAM211A (11726209_a_at) / Fold change /veh FAM211A (11726209_a_at) / RFU RGS16 (11746705_a_at) / Fold change /veh RGS16 (11746705_a_at) / RFU VCAN (11755009_s_at) / Fold change /veh VCAN (11755009_s_at) / RFU RHOB (11743442_s_at) / Fold change /veh RHOB (11743442_s_at) / RFU RGS16 (11720943_a_at) / Fold change /veh RGS16 (11720943_a_at) / RFU RGS16 (11720944_at) / Fold change /veh RGS16 (11720944_at) / RFU, VPS4B / Fold change vs veh, VPS4B / RFU, CREB1 / Fold change vs veh, CREB1 / RFU, DNAJC13 / Fold change vs veh, DNAJC13 / RFU, GNAQ / Fold change vs veh, GNAQ / RFU, CDK5R1 / Fold change vs veh, CDK5R1 / RFU, ZRANB3 / Fold change vs veh, ZRANB3 / RFU, CUL4A / Fold change vs veh, CUL4A / RFU, CCNY / Fold change vs veh, CCNY / RFU, UFL1 / Fold change vs veh, UFL1 / RFU, COG3 / Fold change vs veh, COG3 / RFU, DIAPH2 / Fold change vs veh, DIAPH2 / RFU, SKA2 / Fold change vs veh, SKA2 / RFU, AFF3 / Fold change vs veh, AFF3 / RFU, LMF1 / Fold change vs veh, LMF1 / RFU, IPO11 / Fold change vs veh, IPO11 / RFU, DFFB / Fold change vs veh, DFFB / RFU, FOXP1 / Fold change vs veh, FOXP1 / RFU, CARD8 / Fold change vs veh, CARD8 / RFU, STRN3 / Fold change vs veh, STRN3 / RFU, ADK / Fold change vs veh, ADK / RFU, RASSF2 / Fold change vs veh, RASSF2 / RFU, WIPF1 / Fold change vs veh, WIPF1 / RFU, LARP1B / Fold change vs veh, LARP1B / RFU, RASA1 / Fold change vs veh, RASA1 / RFU, RB1 / Fold change vs veh, RB1 / RFU, PPFIA1 / Fold change vs veh, PPFIA1 / RFU, MAT2A / Fold change vs veh, MAT2A / RFU, CCT5 / Fold change vs veh, CCT5 / RFU, WDR92 / Fold change vs veh, WDR92 / RFU, CUX1 / Fold change vs veh, CUX1 / RFU, TTC7A / Fold change vs veh, TTC7A / RFU, TMEM135 / Fold change vs veh, TMEM135 / RFU, DEPTOR / Fold change vs veh, DEPTOR / RFU, CPM / Fold change vs veh, CPM / RFU, DNAJB6 / Fold change vs veh, DNAJB6 / RFU, CACNA2D3 / Fold change vs veh, CACNA2D3 / RFU, DTX4 / Fold change vs veh, DTX4 / RFU, TFCP2 / Fold change vs veh, TFCP2 / RFU, GMCL1 /// GMCL1P1 / Fold change vs veh, GMCL1 /// GMCL1P1 / RFU, AEBP2 / Fold change vs veh, AEBP2 / RFU, SNHG1 /// SNORD22 /// SNORD25 /// SNORD26 /// SNORD27 /// SNORD28 /// SNORD29 /// SNORD31 / Fold change vs veh, SNHG1 /// SNORD22 /// SNORD25 /// SNORD26 /// SNORD27 /// SNORD28 /// SNORD29 /// SNORD31 / Fold change (Aza/veh), C12orf56 (ProbeSet 11735607_a_at) / Fold change (ACY-1035/veh), C12orf56 (ProbeSet 11735607_a_at) / Fold change (Aza/veh), FGFR1OP (ProbeSet 11751329_s_at) / Fold change (ACY-1035/veh), FGFR1OP (ProbeSet 11751329_s_at) / Fold change (Aza/veh), VPS36 (ProbeSet 11739960_a_at) / Fold change (ACY-1035/veh), VPS36 (ProbeSet 11739960_a_at) / RFU SYPL1 (11715823_x_at) / Fold change /veh SYPL1 (11715823_x_at) / RFU IGFBP7 (11715501_s_at) / Fold change /veh IGFBP7 (11715501_s_at) / RFU REEP3 (11722064_at) / Fold change /veh REEP3 (11722064_at) / RFU IGLL1 (11728026_x_at) / Fold change /veh IGLL1 (11728026_x_at): dose or concentration left out as unconfirmed
Settings: ProbeSet 11762504_a_at; LIST D

Nc1ccc(-c2cccs2)cc1NC(=O)c1ccc2c(c1)cc(C1CC1)n2CCN1CCOCC1 [ACY-1035]
Fold change vs veh, ZRANB3: 0.86
